Measured values: article PMC7483518, “Destabilizing single chain major histocompatibility complex class I protein for repurposed enterokinase proteolysis” (Scientific Reports, 2020)
Read-outs that look alike come from different tables or passages of the source.

Columns and labels:
[1] = target: photolabile unchained HLA-A*11:01 pMHC-I protein (Homo sapiens, UniProt P04439, A114D/D185E/E176A/F33Y/L180Q/S129P/T187R); assay: ELISA with photolabile unchained pMHC-I protein and UV irradiation; type: binding
[2] = target: T1, photo-labile unchained HLA-A*11:01 MHC-I protein (Homo sapiens, UniProt P04439, A114D/D185E/E176A/F33Y/L180Q/S129P/T187R); assay: Photo-labile unchained MHC-I protein treated with UV, peptides and enterokinase (SDS-PAGE band volume); type: biochemical
T1 construct: made in house

[3] = system: HLA-A*11:01 single chain protein; type: biochemical, Human; set-up: EZ50kDa / EZ50kD (pH 6.2) / EZ50kD (pH 8) / EZ50kD (normalised: EBV1101 = 1, EBV0201 = 0) / EZ50kDa rank: unit not given beside the values;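 for EZ50kD (pH 6.2): scaled with positive control peptide as 1 and negative control peptide as 0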
[4] = mean Adj. Volume of the 2 replicates
[5] = mean of the 2 replicates of EZ50kD
[6] = EASY MHC-I A*11:01, 2019-07-25, mean of the 2 replicates
[7] = EASY MHC-I A*11:01, 2019-07-26, mean of the 2 replicates
[8] = EASY MHC-I A*11:01, 2019-08-01, mean of the 2 replicates
[9] = EASY MHC-I A*11:01, run 2019-08-06, 5min, mean of 2 replicates
[10] = EASY MHC-I A*11:01, run 2019-08-07, 5min, mean of 2 replicates
[11] = EASY MHC-I A*11:01, run 2019-08-08, 5min, mean of 2 replicates
[12] = Table 2, 62.5 nM photolabile pMHC-I mixture, 5 μM peptide in PBS, UV 365 nm 2 × 5 min on ice, 2 h room temperature on anti-β2m plate, Abs450nm − Abs570nm, instability cutoff < 0.6
[13] = Table 2, pH 6.2, 37 °C, enterokinase, Eq. (4), instability cutoff < 0.3
[14] = EASY MHC-I A*11:01, gel 2019-07-17 lr1028-1036 5min, replicate 1 (lanes 1-14)
[15] = EASY MHC-I A*11:01, gel 2019-07-17 lr1028-1036 5min, replicate 2 (lanes 15-28)
[16] = EASY MHC-I A*11:01, gel 2019-07-24 lr1046_ex1004 5min, replicate 1 (lanes 1-14)
[17] = EASY MHC-I A*11:01, gel 2019-07-24 lr1046_ex1004 5min, replicate 2 (lanes 15-28)

Sequence | EASY_mean [1] | EZ_mean [3] | EASY_mean ([1]; […], mean, STDEV) | further results
FGSLLDYVREHK [CS1048] | 0.1889 |  |  | vol [2, 4]: 12972708; Batch Mean [2, 5]: 0.7597; vol [3, 4]: 7729416; Batch Mean [3, 5]: 0.09362
PFGSLLDY [CS1005] | -0.004417 | -0.07269 |  | 
PFGSLLDYVR [CS1024] | 0.06666 | -0.007587 |  | 
PVAIKTSPKA [EX1010] |  |  | -0.007707 | EZ_mean [3, 6]: -0.04257
PVAIKTSPKAN [EX1017] |  |  |  | EASY_mean ([1]; ELISA signal, mean, […]): -0.01335; EZ_mean [3, 7]: -0.1176
PVAIKTSPKANK [EX1025] | -0.00741 |  |  | EZ_mean [3, 8]: -0.1057
QLIMQLMP [TM1005] |  |  |  | EASY_mean ([1]; ELISA signal, mean, […]): -0.03905; EZ_mean [3, 9]: -0.1114
QLIMQLMPF [TM1014] |  |  | -0.03038 | EZ_mean [3, 10]: -0.09931
QLIMQLMPFG [TM1024] |  |  |  | EASY_mean ([1]; ELISA signal, mean, […]): -0.01897; EZ_mean [3, 11]: -0.01105; Norm_mean [3, 11]: 0.009219
QLIMQLMPFGC [TM1035] |  | -0.1197 |  | EASY_mean ([1]; ELISA signal, mean, […]): -0.06893
QLIMQLMPFGCL [TM1047] | -0.05287 | -0.1111 |  | 
QLITQLMPFGS [CS1028] | -0.02964 | -0.07904 |  | 
QLITQLMPFGSL [CS1040] | -0.0163 | -0.03735 |  | 
QLMPFGSLLD [CS1021] | 0.0006677 | -0.06288 |  | 
RAKLLGAE [LR1008] |  | -0.05335 | -0.01564 | 
RAKLLGAEE [LR1017] |  | -0.04971 | -0.0266 | 
RAKLLGAEEKE [LR1038] | -0.00823 | -0.07295 |  | 
RAKLLGAEEKEY [LR1050] | 0.01434 | 0.007797 |  | 
RSFKDLLKK [reference compound] |  |  |  | ELISA450nm [1]: 1.682; EZ50kD (pH 6.2) ([3]; pH 6.2): 0.6092
SLLDYVRE [CS1008] | -0.02238 | -0.06325 |  | 
SLLDYVREHKD [CS1038] | -0.01097 | -0.03388 |  | 

Sequence | EASY_mean [1] | EZ_mean [3] | EASY_mean ([1]; […], mean, STDEV) | further results
SSCSSCPLSK [reference compound] |  |  |  | ELISA450nm [1, 12]: 1.272; EZ50kD (pH 6.2) [3, 13]: 0.6649; EZ50kD (pH 6.2) ([3]; pH 6.2): 0.9576; EZ50kD (pH 8) ([3]; pH 8): 0.8409
STIPETTVVR [putative peptide, HBV, no IEDB entry] |  |  |  | ELISA450nm [1, 12]: 1.391; EZ50kD (pH 6.2) [3, 13]: 0.3226
STVQLIMQ [TM1002] |  |  | -0.02917 | EZ_mean [3, 9]: -0.09047
STVQLIMQLM [TM1021] |  |  | -0.01593 | EZ_mean [3, 11]: -0.03318; Norm_mean [3, 11]: -0.01917
STVQLIMQLMP [TM1032] |  | -0.1174 |  | EASY_mean ([1]; ELISA signal, mean, […]): -0.06602
STVQLIMQLMPF [TM1043] |  | -0.1271 | -0.05995 | 
TDFGRAKL [LR1004] |  | -0.05517 | -0.01664 | 
TDFGRAKLL [LR1013] |  | -0.005317 | -0.002506 | 
TDFGRAKLLG [LR1023] |  | -0.0651 | -0.02398 | 
TDFGRAKLLGA [LR1034] | -0.04602 |  |  | EZ_mean ([3]; EASY MHC-I A*11:01, gel 2019-07-17 lr1028-1036 5min, mean of 2 replicates): -0.04886; EZ50kD (normalised: EBV1101 = 1, EBV0201 = 0) [3, 14]: -0.06534; Norm (50 kDa band adj. volume normalised: Undig_37C = 1, Dig_37C = 0) [3, 14]: -0.06378; EZ50kD (normalised: EBV1101 = 1, EBV0201 = 0) [3, 15]: -0.03237; Norm (50 kDa band adj. volume normalised: Undig_37C = 1, Dig_37C = 0) [3, 15]: -0.02825
TDFGRAKLLGAE [LR1046] | -0.01889 |  |  | EZ_mean ([3]; EASY MHC-I A*11:01, gel 2019-07-24 lr1046_ex1004 5min, mean of 2 replicates): -0.05291; EZ50kD (normalised: EBV1101 = 1, EBV0201 = 0) [3, 16]: -0.04519; Norm (50 kDa band adj. volume normalised: Undig_37C = 1, Dig_37C = 0) [3, 16]: -0.03888; EZ50kD (normalised: EBV1101 = 1, EBV0201 = 0) [3, 17]: -0.06064; Norm (50 kDa band adj. volume normalised: Undig_37C = 1, Dig_37C = 0) [3, 17]: 0.001098
TQLMPFGS [CS1001] | 0.00928 | -0.06222 |  | 
TQLMPFGSL [CS1010] | -0.009401 | -0.05322 |  | 
TQLMPFGSLLD [CS1031] | -0.03382 | -0.07663 |  | 
TQLMPFGSLLDY [CS1043] | 0.01363 | -0.01577 |  | 
TSPKANKE [EX1004] | -0.008845 | -0.03458 |  | 
TSPKANKEI [EX1009] |  |  | -0.005092 | EZ_mean [3, 6]: -0.03775
TSPKANKEIL [EX1015] |  |  | -0.004833 | EZ_mean [3, 7]: -0.1061
TSPKANKEILD [EX1022] |  |  |  | EASY_mean ([1]; ELISA signal, mean, […]): -0.01584; EZ_mean [3, 7]: -0.1213
TSPKANKEILDE [EX1030] | -0.0262 |  |  | EZ_mean [3, 8]: -0.138
TSTVQLIM [TM1001] |  |  | -0.02312 | EZ_mean [3, 9]: -0.08359

Sequence | EASY_mean [1] | EZ_mean [3] | EASY_mean ([1]; […], mean, STDEV) | further results
TSTVQLIMQ [TM1010] |  |  | -0.01875 | EZ_mean [3, 10]: -0.07795
TSTVQLIMQL [TM1020] |  |  | -0.02933 | EZ_mean [3, 11]: -0.0424; Norm_mean [3, 11]: -0.03086
TSTVQLIMQLM [TM1031] |  | -0.09739 | -0.04936 | 
TSTVQLIMQLMP [TM1042] |  | -0.1051 |  | EASY_mean ([1]; ELISA signal, mean, […]): -0.04181
TVMDIISRR [reference compound] |  |  |  | ELISA450nm [1, 12]: 1.944; EZ50kD (pH 6.2) [3, 13]: 1.086
TVQLIMQL [TM1003] |  |  | -0.03257 | EZ_mean [3, 9]: -0.09825
TVQLIMQLM [TM1012] |  |  | -0.03295 | EZ_mean [3, 10]: -0.1032
TVQLIMQLMP [TM1022] |  |  |  | EASY_mean ([1]; ELISA signal, mean, […]): -0.01505; EZ_mean [3, 11]: -0.0531; Norm_mean [3, 11]: -0.04425
TVQLIMQLMPF [TM1033] |  | -0.1125 | -0.06339 | 
TVQLIMQLMPFG [TM1044] |  | -0.09806 |  | EASY_mean ([1]; ELISA signal, mean, […]): -0.03569
VAIKTSPKA [EX1005] |  |  | 0.004482 | EZ_mean [3, 6]: -0.02025
VAIKTSPKAN [EX1011] |  |  |  | EASY_mean ([1]; ELISA signal, mean, […]): -0.005285; EZ_mean [3, 6]: -0.03763
VAIKTSPKANKE [EX1026] | -0.02113 |  |  | EZ_mean [3, 8]: -0.1295
VQLIMQLM [TM1004] |  |  | -0.05004 | EZ_mean [3, 9]: -0.1305
VQLIMQLMP [TM1013] |  |  | -0.03636 | EZ_mean [3, 10]: -0.1096
VQLIMQLMPF [TM1023] |  |  | -0.02163 | EZ_mean [3, 11]: -0.03531; Norm_mean [3, 11]: -0.02177
VQLIMQLMPFG [TM1034] |  | -0.1329 |  | EASY_mean ([1]; ELISA signal, mean, […]): -0.07888
VQLIMQLMPFGC [TM1045] |  | -0.1164 |  | EASY_mean ([1]; ELISA signal, mean, […]): -0.05081
VQLITQLMPFGS [CS1039] | -0.02003 | -0.04039 |  | 
